Counter-ions that a name gives are not always drawn. Like-named read-outs stand apart in the source and are kept apart here.
Key:
BN rats [1] = experiment: Allergen stimulated mucus production of airways epithelial cells, PAS(+) cell count (Model 2); assay type: in vivo, rat; conditions: for number of PAS(+) cells as percent of total number of cells (average ± SEM): lungs 48 h after challenge, challenge 27.6 ± 3.5, control 2.9 ± 0.9
Protocol: Sensitized BN rats were treated intratracheally with 0.01 or 1.0 mg/kg dose of compound of formula (IIA), two hours before antigenic challenge, using a similar protocol described in Model 1. Lungs were collected 48 hours after challenge and were fixed in 8% phophospate buffered formaldehyde. Samples were then processed for histochemistry routinely. 5 μm thick sections were stained with periodic-acid-Schiff (PAS) reagents and were counterstained with haematoxylin-eosine. On the sections each epithelial cells of the airways were counted in the whole preparation at a magnification of 400×. The number of PAS(+) [mucus producing] epithelial cells was expressed as the ratio of the […] of epithelial cells.
As it is shown in Table 2, allergen challenge stimulates the mucus production of airways epithelial cells (control vs. challenge).

BN rats [2] = experiment: Eosinophilia in bronchoalveolar lavage fluid (Model 4); assay type: in vivo, rat; conditions: for Eosinophil: eosinophil number/ml BALF (average ± SEM): BALF 48 h after challenge, challenge 1.00 ± 0.16, control 0.35 ± 0.04
Protocol: Sensitized BN rats were treated intratracheally with 0.01 and 1.0 mg/kg dose of compound of formula (IIA); two hours before antigenic challenge, using a similar protocol described in Model 1. Bronchoalveolar lavage fluids (BALF) were collected 48 hours after challenge and after staining, the number of eosinophils were determined.
As it is shown in Table 4, allergen challenge causes an increase in the number of eosinophils in the bronchioalveolar lavage.

BN rats [3] = experiment: Perivascular oedema in asthmatic lung tissue (Model 3); assay type: in vivo, rat; conditions: for Oedema: area of oedema relative to area of vasculature (average ± SEM): lungs 48 h after challenge, challenge 224 ± 17, control 71 ± 7
Protocol: Sensitized BN rats were treated intratracheally with 0.01 and 1.0 mg/kg dose of compound of formula (IIA), two hours before antigenic challenge, using a similar protocol described in Model 1. Lungs were collected 48 hours after challenge and were fixed in 8% phosphate buffered formaldehyde. Samples were then processed for histochemistry routinely. […] thick sections were stained with periodic-acid-Schiff (PAS) reagents and were counterstained with haematoxylin-eosine. On the sections the areas of the connective tissue around the vasculare were determined and expressed as a ratio of the area of the corresponding blood vessel itself.

Brown Norway (BN) rats = experiment: Tracheal contraction to acetylcholine ex vivo after antigen challenge of ovalbumin-sensitized BN rats (Model 1); assay type: in vivo, rat; conditions: for MAX: contraction at maximal Ach concentration relative to control (mean ± SEM): placebo 220 ± 30, control 100 ± 0; for ED50: log M acetylcholine (Ach), causing 50% contraction relative to control (mean ± SEM): trachea 48 h post challenge, placebo 6.10 ± 0.30, control 5.16 ± 0.08
Protocol: Examination of the effect of locally administered sulfated oligosaccharides on airways' hyper-responsiveness ex vivo.
Brown Norway (BN) rats were actively sensitized to ovalbumin (OA) by a subcutaneous injection of 0.5 ml of OA/Al(OH)3 gel mixture (2 mg OA+10 g Al(OH)3/100 ml saline) on day 1 with subsequent subcutaneous injections (10 mg OA+10 g Al(OH)3/100 ml saline) given on days 14 and 21. On day 28, animals received the compound of formula (IIA) intratracheally (0.01 or 1.0 mg/kg dose) 2 hours before antigen challenge. Antigen challenge was performed by inhalation of nebulised ovalbumin (1% antigen solution administered in a TSE inhalation system for 1 hour). Animals were sacrificed 48 hours post antigen challenge wherein the tracheas were removed to an organ bath. Dissected tracheas were allowed to equilibrate for 30 minutes before measuring tracheal spasmogenic response curves to acetylcholine (Ach).
As shown in Table 1 ovalbumin challenge of sensitized animals in this model caused a significant tracheal hyper-reactivity to acetylcholine, when the response to the spasmogenic agent was determined 48 h after antigen challenge.

IP-3 receptor = target: T1, IP-3 receptor (Rattus norvegicus, UniProt P29994); experiment: IP-3 receptor antagonistic effect, rat cerebellum membrane preparations (Model 5); assay type: binding; conditions: for IC50 Average ± SEM (n) / IC50: inhibition of IP-3 binding
T1 construct: rat cerebellum membrane preparations; from tissue; host or cells: rat cerebellum (microsomal membrane preparation)
Protocol: The sulfated oligosaccharides of the present invention, depending on their chemical structure, inhibit the binding of inositol-1,4,5-trisphophate […] to its receptor in microsomal membrane preparations. As IP-3 is a messenger molecule playing distinguished role in the activation of different cells, interfering with this function can explain the anti-asthmatic effect of these sulfated oligosaccharides.
The IP-3 antagonist effect of the sulfated oligosaccharides was determined using rat cerebellum membrane preparations according to Worley et al. (JBC 262, 12132, 1987).

[4] = 0.01 mg/kg intratracheally 2 h before challenge
[5] = 1.0 mg/kg intratracheally 2 h before challenge
[6] = higher dose (1.0 mg/kg intratracheally)
[7] = 0.01 mg/kg intratracheally 2 h before antigen challenge
[8] = 1.0 mg/kg intratracheally 2 h before antigen challenge

T1 sequence (P29994 whole entry): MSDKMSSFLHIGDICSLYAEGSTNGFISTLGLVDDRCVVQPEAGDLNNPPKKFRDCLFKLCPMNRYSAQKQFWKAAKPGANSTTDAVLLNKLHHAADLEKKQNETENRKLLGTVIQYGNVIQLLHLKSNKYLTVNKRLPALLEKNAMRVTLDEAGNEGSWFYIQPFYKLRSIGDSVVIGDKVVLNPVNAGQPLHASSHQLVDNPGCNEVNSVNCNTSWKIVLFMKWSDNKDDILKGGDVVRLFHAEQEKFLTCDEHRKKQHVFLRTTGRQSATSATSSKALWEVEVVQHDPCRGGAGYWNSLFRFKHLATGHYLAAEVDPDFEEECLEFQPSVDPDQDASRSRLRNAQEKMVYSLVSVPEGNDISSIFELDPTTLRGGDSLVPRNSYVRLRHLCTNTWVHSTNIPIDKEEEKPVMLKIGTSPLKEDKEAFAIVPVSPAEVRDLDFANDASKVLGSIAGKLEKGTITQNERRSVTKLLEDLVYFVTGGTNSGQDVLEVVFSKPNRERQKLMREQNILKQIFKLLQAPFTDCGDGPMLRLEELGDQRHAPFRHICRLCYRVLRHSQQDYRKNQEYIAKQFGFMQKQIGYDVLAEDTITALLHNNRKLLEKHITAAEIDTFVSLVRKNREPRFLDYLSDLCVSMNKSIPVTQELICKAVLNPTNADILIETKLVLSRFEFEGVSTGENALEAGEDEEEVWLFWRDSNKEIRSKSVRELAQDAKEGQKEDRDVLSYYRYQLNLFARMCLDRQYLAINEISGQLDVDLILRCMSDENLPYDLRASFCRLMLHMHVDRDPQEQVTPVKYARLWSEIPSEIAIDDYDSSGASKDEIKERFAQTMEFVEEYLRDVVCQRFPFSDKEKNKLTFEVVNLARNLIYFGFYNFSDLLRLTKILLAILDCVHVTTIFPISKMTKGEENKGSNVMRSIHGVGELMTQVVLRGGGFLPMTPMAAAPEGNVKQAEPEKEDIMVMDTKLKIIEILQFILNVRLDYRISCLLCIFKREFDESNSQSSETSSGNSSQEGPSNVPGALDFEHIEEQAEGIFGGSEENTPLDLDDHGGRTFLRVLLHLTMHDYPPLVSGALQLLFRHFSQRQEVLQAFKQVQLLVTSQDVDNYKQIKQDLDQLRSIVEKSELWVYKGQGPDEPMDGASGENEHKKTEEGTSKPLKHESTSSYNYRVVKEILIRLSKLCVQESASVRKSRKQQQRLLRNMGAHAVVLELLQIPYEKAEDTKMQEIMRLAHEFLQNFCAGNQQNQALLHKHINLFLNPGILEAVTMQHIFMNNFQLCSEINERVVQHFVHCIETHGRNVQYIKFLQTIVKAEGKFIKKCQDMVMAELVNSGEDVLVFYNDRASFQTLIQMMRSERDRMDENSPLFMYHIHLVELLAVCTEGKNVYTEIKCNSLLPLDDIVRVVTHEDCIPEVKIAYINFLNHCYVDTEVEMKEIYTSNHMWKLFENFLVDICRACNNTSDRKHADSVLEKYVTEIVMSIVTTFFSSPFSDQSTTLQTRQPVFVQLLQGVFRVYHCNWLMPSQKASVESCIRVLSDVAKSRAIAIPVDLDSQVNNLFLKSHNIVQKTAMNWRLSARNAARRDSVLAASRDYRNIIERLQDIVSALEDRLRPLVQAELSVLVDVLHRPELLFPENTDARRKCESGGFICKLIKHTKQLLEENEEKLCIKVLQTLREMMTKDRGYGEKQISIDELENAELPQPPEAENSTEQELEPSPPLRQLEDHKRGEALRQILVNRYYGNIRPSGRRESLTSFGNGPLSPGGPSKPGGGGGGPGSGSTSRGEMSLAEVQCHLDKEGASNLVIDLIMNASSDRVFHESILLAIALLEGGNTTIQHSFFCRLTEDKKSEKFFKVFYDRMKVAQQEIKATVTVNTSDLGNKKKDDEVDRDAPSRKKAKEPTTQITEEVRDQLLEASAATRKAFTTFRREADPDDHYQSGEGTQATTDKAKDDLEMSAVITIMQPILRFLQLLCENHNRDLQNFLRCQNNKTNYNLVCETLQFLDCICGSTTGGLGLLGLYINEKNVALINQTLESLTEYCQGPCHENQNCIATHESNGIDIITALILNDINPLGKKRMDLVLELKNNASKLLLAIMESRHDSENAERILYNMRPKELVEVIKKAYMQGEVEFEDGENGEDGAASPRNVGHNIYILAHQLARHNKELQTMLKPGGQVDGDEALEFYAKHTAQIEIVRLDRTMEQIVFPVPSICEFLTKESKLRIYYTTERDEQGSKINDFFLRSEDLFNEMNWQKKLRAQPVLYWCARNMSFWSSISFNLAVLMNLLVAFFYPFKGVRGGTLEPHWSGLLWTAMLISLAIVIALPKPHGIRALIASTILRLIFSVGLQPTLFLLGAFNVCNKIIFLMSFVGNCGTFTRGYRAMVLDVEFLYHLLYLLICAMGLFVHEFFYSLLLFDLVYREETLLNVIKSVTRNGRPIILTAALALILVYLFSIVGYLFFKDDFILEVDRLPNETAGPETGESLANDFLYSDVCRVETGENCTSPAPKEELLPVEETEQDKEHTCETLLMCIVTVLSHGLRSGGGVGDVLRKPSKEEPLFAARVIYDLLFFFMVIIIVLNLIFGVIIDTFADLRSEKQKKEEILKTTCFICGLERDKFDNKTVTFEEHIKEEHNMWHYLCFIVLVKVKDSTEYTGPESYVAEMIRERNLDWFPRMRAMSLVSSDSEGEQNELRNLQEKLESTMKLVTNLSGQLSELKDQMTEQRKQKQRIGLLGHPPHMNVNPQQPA

## O=S(=O)([O-])OC[C@H]1O[C@@](COS(=O)(=O)[O-])(O[C@H]2O[C@H](COS(=O)(=O)[O-])[C@@H](OS(=O)(=O)[O-])[C@H](OS(=O)(=O)[O-])[C@H]2OS(=O)(=O)[O-])[C@@H](OS(=O)(=O)[O-])[C@@H]1OS(=O)(=O)[O-].[Na+].[Na+].[Na+].[Na+].[Na+].[Na+].[Na+].[Na+] [IIA, sucrose octasulfate octa sodium salt]
BN rats [1]; 0.01 mg/kg intratracheally
  effect on number of PAS(+), mucus producing cells (in words): notably
BN rats [1]; [4]
  number of PAS(+) cells as percent of total number of cells (average ± SEM): 19.2 ± 2.7%
BN rats [1]; [5]
  number of PAS(+) cells as percent of total number of cells (average ± SEM): 7.3 ± 1.4%
BN rats [1]; [6]
  effect on number of PAS(+), mucus producing cells (in words): statistically significantly decreased
BN rats [2]; [4]
  Eosinophil: eosinophil number/ml BALF (average ± SEM): 0.89 ± 0.13 eosinophil number/ml BALF
BN rats [2]; [5]
  Eosinophil: eosinophil number/ml BALF (average ± SEM): 0.70 ± 0.08 eosinophil number/ml BALF
BN rats [2]; higher doses (1.0 mg/kg intratracheally)
  effect on number of eosinophils in the bronchioalveolar lavage (in words): the decrease become statistically significant
BN rats [2]; smallest dose (0.01 mg/kg intratracheally)
  effect on number of eosinophils in the bronchioalveolar lavage (in words): decreases the extent of it
BN rats [3]; [4]
  Oedema: area of oedema relative to area of vasculature (average ± SEM): 177 ± 10
BN rats [3]; [5]
  Oedema: area of oedema relative to area of vasculature (average ± SEM): 119 ± 7
BN rats [3]; [6]
  effect on extent of oedema around the vasculature (in words): significantly decreased
Brown Norway (BN) rats; [7]
  MAX: contraction at maximal Ach concentration relative to control (mean ± SEM): 167 ± 36
  ED50: log M acetylcholine (Ach), causing 50% contraction relative to control (mean ± SEM): 4.73 ± 0.50 log M
Brown Norway (BN) rats; [8]
  MAX: contraction at maximal Ach concentration relative to control (mean ± SEM): 131 ± 22
  ED50: log M acetylcholine (Ach), causing 50% contraction relative to control (mean ± SEM): 4.98 ± 0.30 log M
Brown Norway (BN) rats; both applied doses (0.01 and 1.0 mg/kg intratracheally)
  effect on tracheal hyper-reactivity to acetylcholine (in words): notably decreased this elevation
IP-3 receptor
  IP-3 antagonist activity (in words): significant IP-3 antagonist activity
  IC50 Average ± SEM (n): 0.26 ± 0.05 (4) μg/ml
IP-3 receptor; read-out: Average IC50
  IC50: 208 nM

## O=S(=O)(O)OC[C@H]1O[C@H](O[C@H]2O[C@H](COS(=O)(=O)O)[C@@H](OS(=O)(=O)O)[C@H](OS(=O)(=O)O)[C@H]2OS(=O)(=O)O)[C@H](OS(=O)(=O)O)[C@@H](OS(=O)(=O)O)[C@@H]1OS(=O)(=O)O [IIB, trehalose octasulfate octa potassium salt]
IP-3 receptor; read-out: Average IC50
  IC50: 194 nM
IP-3 receptor; read-out: IC50 Average ± SEM (n) (converted)
  IC50: 244 nM

## O=S(=O)([O-])OC[C@H]1O[C@H](OC[C@H]2O[C@H](O[C@]3(COS(=O)(=O)[O-])O[C@H](COS(=O)(=O)[O-])[C@@H](OS(=O)(=O)[O-])[C@@H]3OS(=O)(=O)[O-])[C@H](OS(=O)(=O)[O-])[C@@H](OS(=O)(=O)[O-])[C@@H]2OS(=O)(=O)[O-])[C@H](OS(=O)(=O)[O-])[C@@H](OS(=O)(=O)[O-])[C@H]1OS(=O)(=O)[O-].[K+].[K+].[K+].[K+].[K+].[K+].[K+].[K+].[K+].[K+].[K+] [IIC, raffinose undecasulfate undeca potassium salt]
IP-3 receptor
  IP-3 antagonist activity (in words): significant IP-3 antagonist activity
  IC50 Average ± SEM (n): 0.43 ± 0.05 (3) μg/ml
IP-3 receptor; read-out: Average IC50
  IC50: 238 nM

From patent publication US20090215717A1, “Sulfated oligosaccharides” (Ivax Drug Research Institute Ltd., priority 2004, published 2009)
